Data taken from PubChem BioAssay (NCI).
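GI50 = concentration required for 50% inhibition of growth. TGI is the concentration that stops growth completely.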

What was measured:
Test in all cases: NCI anticancer screen, dose series, 384-well format
T-47D breast = system: T-47D breast
CAKI-1 renal = system: CAKI-1 renal
MALME-3M melanoma = system: MALME-3M melanoma
786-0 renal = system: 786-0 renal
SNB-19 CNS = system: SNB-19 CNS
MOLT-4 leukemia = system: MOLT-4 leukemia
HCC-2998 colon = system: HCC-2998 colon
OVCAR-4 ovarian = system: OVCAR-4 ovarian
NCI-H322M lung = system: NCI-H322M lung
SF-295 CNS = system: SF-295 CNS
ACHN renal = system: ACHN renal
HOP-92 NSCLC = system: HOP-92 NSCLC
A549 NSCLC = system: A549 NSCLC
OVCAR-5 ovarian = system: OVCAR-5 ovarian
M14 melanoma = system: M14 melanoma
PC-3 prostate = system: PC-3 prostate
SW-620 colon = system: SW-620 colon
UO-31 renal = system: UO-31 renal
NCI-H522 lung = system: NCI-H522 lung
HS 578T breast = system: HS 578T breast
NCI-H460 NSCLC = system: NCI-H460 NSCLC
MDA-MB-468 breast = system: MDA-MB-468 breast
SF-539 CNS = system: SF-539 CNS
HT29 colon = system: HT29 colon
NCI/ADR-RES ovarian = system: NCI/ADR-RES ovarian
OVCAR-3 ovarian = system: OVCAR-3 ovarian
HCT-15 colon = system: HCT-15 colon
NCI-H226 lung = system: NCI-H226 lung
SK-MEL-28 melanoma = system: SK-MEL-28 melanoma
HOP-62 NSCLC = system: HOP-62 NSCLC
A498 renal = system: A498 renal
K-562 leukemia = system: K-562 leukemia
BT-549 breast = system: BT-549 breast
NCI-H23 lung = system: NCI-H23 lung
DU-145 prostate = system: DU-145 prostate
IGROV1 ovarian = system: IGROV1 ovarian
SK-OV-3 ovarian = system: SK-OV-3 ovarian
RXF 393 renal = system: RXF 393 renal
MDA-MB-231 breast = system: MDA-MB-231 breast
UACC-62 melanoma = system: UACC-62 melanoma
LOX IMVI melanoma = system: LOX IMVI melanoma
TK-10 renal = system: TK-10 renal
COLO 205 colon = system: COLO 205 colon
RPMI-8226 leukemia = system: RPMI-8226 leukemia
HL-60(TB) leukemia = system: HL-60(TB) leukemia
EKVX NSCLC = system: EKVX NSCLC
CCRF-CEM leukemia = system: CCRF-CEM leukemia
SNB-75 CNS = system: SNB-75 CNS
KM12 colon = system: KM12 colon
SN12C renal = system: SN12C renal
OVCAR-8 ovarian = system: OVCAR-8 ovarian
UACC-257 melanoma = system: UACC-257 melanoma
SK-MEL-5 melanoma = system: SK-MEL-5 melanoma
MCF7 breast = system: MCF7 breast
SR leukemia = system: SR leukemia
MDA-MB-435 melanoma = system: MDA-MB-435 melanoma
SF-268 CNS = system: SF-268 CNS
U251 glioblastoma = system: U251 glioblastoma

Cc1cncc(-c2nc(NCCc3c[nH]c4ccccc34)c3ncn(C(C)C)c3n2)c1
GI50 (T-47D breast): 3570 nM
TGI (T-47D breast): 10900 nM
GI50 (CAKI-1 renal): 3960 nM
TGI (CAKI-1 renal): 12700 nM
GI50 (MALME-3M melanoma): 1770 nM
TGI (MALME-3M melanoma): 3240 nM
GI50 ([…]-0 renal): 1760 nM
TGI (786-0 renal): 3650 nM
GI50 (SNB-19 CNS): 5500 nM
TGI (SNB-19 CNS): 18800 nM
GI50 (MOLT-4 leukemia): 1870 nM
TGI (MOLT-4 leukemia): 3550 nM
GI50 (HCC-2998 colon): 2500 nM
TGI (HCC-2998 colon): 5000 nM
GI50 (OVCAR-4 ovarian): 3370 nM
TGI (OVCAR-4 ovarian): 9200 nM
GI50 (NCI-H322M lung): 3060 nM
TGI (NCI-H322M lung): 10100 nM
GI50 (SF-295 CNS): 1930 nM
TGI (SF-295 CNS): 3930 nM
GI50 (ACHN renal): 4170 nM
TGI (ACHN renal): 13500 nM
GI50 (HOP-92 NSCLC): 3760 nM
TGI (HOP-92 NSCLC): 10500 nM
GI50 (A549 NSCLC): 3840 nM
TGI (A549 NSCLC): 14100 nM
GI50 (OVCAR-5 ovarian): 2060 nM
TGI (OVCAR-5 ovarian): 4730 nM
GI50 (M14 melanoma): 2840 nM
TGI (M14 melanoma): 6110 nM
GI50 (PC-3 prostate): 3190 nM
TGI (PC-3 prostate): 8620 nM
GI50 (SW-620 colon): 2110 nM
TGI (SW-620 colon): 3740 nM
GI50 (UO-31 renal): 4640 nM
TGI (UO-31 renal): 17300 nM
GI50 (NCI-H522 lung): 4420 nM
TGI (NCI-H522 lung): 13100 nM
GI50 (HS 578T breast): 2520 nM
TGI (HS 578T breast): 5410 nM
GI50 (NCI-H460 NSCLC): 2260 nM
TGI (NCI-H460 NSCLC): 4530 nM
GI50 (MDA-MB-468 breast): 2210 nM
TGI (MDA-MB-468 breast): 4140 nM
GI50 (SF-539 CNS): 2630 nM
TGI (SF-539 CNS): 7180 nM
GI50 (HT29 colon): 1710 nM
TGI (HT29 colon): 3190 nM
GI50 (NCI/ADR-RES ovarian): 3290 nM
TGI (NCI/ADR-RES ovarian): 9080 nM
GI50 (OVCAR-3 ovarian): 4650 nM
TGI (OVCAR-3 ovarian): 14300 nM
GI50 (HCT-15 colon): 1770 nM
TGI (HCT-15 colon): 3290 nM
GI50 (NCI-H226 lung): 4340 nM
TGI (NCI-H226 lung): 11300 nM
GI50 (SK-MEL-28 melanoma): 1890 nM
TGI (SK-MEL-28 melanoma): 3940 nM
GI50 (HOP-62 NSCLC): 2920 nM
TGI (HOP-62 NSCLC): 8220 nM
GI50 (A498 renal): 2390 nM
TGI (A498 renal): 6390 nM
GI50 (K-562 leukemia): 1890 nM
TGI (K-562 leukemia): 3470 nM
GI50 (BT-549 breast): 4910 nM
TGI (BT-549 breast): 15400 nM
GI50 (NCI-H23 lung): 3810 nM
TGI (NCI-H23 lung): 12800 nM
GI50 (DU-145 prostate): 3470 nM
TGI (DU-145 prostate): 11100 nM
GI50 (IGROV1 ovarian): 4190 nM
TGI (IGROV1 ovarian): 14800 nM
GI50 (SK-OV-3 ovarian): 3990 nM
TGI (SK-OV-3 ovarian): 12300 nM
GI50 (RXF 393 renal): 1960 nM
TGI (RXF 393 renal): 4630 nM
GI50 (MDA-MB-231 breast): 4160 nM
TGI (MDA-MB-231 breast): 12000 nM
GI50 (UACC-62 melanoma): 2560 nM
TGI (UACC-62 melanoma): 5810 nM
GI50 (LOX IMVI melanoma): 4150 nM
TGI (LOX IMVI melanoma): 13900 nM
GI50 (TK-10 renal): 3120 nM
TGI (TK-10 renal): 13200 nM
GI50 (COLO 205 colon): 2280 nM
TGI (COLO 205 colon): 4290 nM
GI50 (RPMI-8226 leukemia): 2200 nM
TGI (RPMI-8226 leukemia): 3780 nM
GI50 (HL-60(TB) leukemia): 1730 nM
TGI (HL-60(TB) leukemia): 3150 nM
GI50 (EKVX NSCLC): 4240 nM
TGI (EKVX NSCLC): 14000 nM
GI50 (CCRF-CEM leukemia): 2110 nM
TGI (CCRF-CEM leukemia): 4220 nM
GI50 (SNB-75 CNS): 4460 nM
TGI (SNB-75 CNS): 16800 nM
GI50 (KM12 colon): 2070 nM
TGI (KM12 colon): 4210 nM
GI50 (SN12C renal): 5320 nM
TGI (SN12C renal): 17200 nM
GI50 (OVCAR-8 ovarian): 4050 nM
TGI (OVCAR-8 ovarian): 13600 nM
GI50 (UACC-257 melanoma): 2040 nM
TGI (UACC-257 melanoma): 3540 nM
GI50 (SK-MEL-5 melanoma): 2500 nM
TGI (SK-MEL-5 melanoma): 7390 nM
GI50 (MCF7 breast): 3420 nM
TGI (MCF7 breast): 9200 nM
GI50 (SR leukemia): 1470 nM
TGI (SR leukemia): 3020 nM
GI50 (MDA-MB-435 melanoma): 5520 nM
TGI (MDA-MB-435 melanoma): 17800 nM
GI50 (SF-268 CNS): 3930 nM
TGI (SF-268 CNS): 12800 nM

CCC(CC)c1cc(N[C@H]2CC[C@H](N)C2)n2nccc2n1
GI50 (MALME-3M melanoma): 761 nM
TGI (MALME-3M melanoma): 1950 nM
GI50 (SNB-19 CNS): 377 nM
TGI (SNB-19 CNS): > 100000 nM
GI50 (MOLT-4 leukemia): 247 nM
TGI (MOLT-4 leukemia): 528 nM
GI50 (HCC-2998 colon): 235 nM
TGI (HCC-2998 colon): 572 nM
GI50 (OVCAR-4 ovarian): 192 nM
TGI (OVCAR-4 ovarian): 414 nM
GI50 (NCI-H322M lung): 403 nM
TGI (NCI-H322M lung): 1510 nM
GI50 (SF-295 CNS): 223 nM
TGI (SF-295 CNS): 499 nM
GI50 (HOP-92 NSCLC): 340 nM
TGI (HOP-92 NSCLC): 24300 nM
GI50 (OVCAR-5 ovarian): 392 nM
TGI (OVCAR-5 ovarian): > 100000 nM
GI50 (M14 melanoma): 276 nM
TGI (M14 melanoma): 766 nM
GI50 (U251 glioblastoma): 334 nM
TGI (U251 glioblastoma): 995 nM
GI50 (PC-3 prostate): 262 nM
TGI (PC-3 prostate): 723 nM
GI50 (SW-620 colon): 360 nM
TGI (SW-620 colon): 8000 nM
GI50 (UO-31 renal): 388 nM
TGI (UO-31 renal): 1970 nM
GI50 (NCI-H522 lung): 209 nM
TGI (NCI-H522 lung): 455 nM
GI50 (HS 578T breast): 269 nM
TGI (HS 578T breast): 628 nM
GI50 (NCI-H460 NSCLC): 195 nM
TGI (NCI-H460 NSCLC): 461 nM
GI50 (MDA-MB-468 breast): 254 nM
TGI (MDA-MB-468 breast): 612 nM
GI50 (SF-539 CNS): 210 nM
TGI (SF-539 CNS): 452 nM
GI50 (HT29 colon): 406 nM
TGI (HT29 colon): > 100000 nM
GI50 (NCI/ADR-RES ovarian): 2250 nM
TGI (NCI/ADR-RES ovarian): 9280 nM
GI50 (OVCAR-3 ovarian): 200 nM
TGI (OVCAR-3 ovarian): 411 nM
GI50 (HCT-15 colon): 348 nM
TGI (HCT-15 colon): 1390 nM
GI50 (NCI-H226 lung): 226 nM
TGI (NCI-H226 lung): 513 nM
GI50 (SK-MEL-28 melanoma): 969 nM
TGI (SK-MEL-28 melanoma): 2220 nM
GI50 (HOP-62 NSCLC): 234 nM
TGI (HOP-62 NSCLC): 532 nM
GI50 (A498 renal): 218 nM
TGI (A498 renal): 457 nM
GI50 (K-562 leukemia): 345 nM
TGI (K-562 leukemia): 1230 nM
GI50 (BT-549 breast): 207 nM
TGI (BT-549 breast): 459 nM
GI50 (NCI-H23 lung): 220 nM
TGI (NCI-H23 lung): 505 nM
GI50 (DU-145 prostate): 313 nM
TGI (DU-145 prostate): 933 nM
GI50 (IGROV1 ovarian): 414 nM
TGI (IGROV1 ovarian): > 100000 nM
GI50 (RXF 393 renal): 191 nM
TGI (RXF 393 renal): 366 nM
GI50 (MDA-MB-231 breast): 269 nM
TGI (MDA-MB-231 breast): 778 nM
GI50 (LOX IMVI melanoma): 190 nM
TGI (LOX IMVI melanoma): 343 nM
GI50 (COLO 205 colon): 267 nM
TGI (COLO 205 colon): 646 nM
GI50 (RPMI-8226 leukemia): 181 nM
TGI (RPMI-8226 leukemia): 337 nM
GI50 (HL-60(TB) leukemia): 214 nM
TGI (HL-60(TB) leukemia): 378 nM
GI50 (EKVX NSCLC): 516 nM
TGI (EKVX NSCLC): 2650 nM
GI50 (CCRF-CEM leukemia): 210 nM
TGI (CCRF-CEM leukemia): 423 nM
GI50 (SNB-75 CNS): 380 nM
TGI (SNB-75 CNS): 1190 nM
GI50 (KM12 colon): 295 nM
TGI (KM12 colon): 906 nM
GI50 (SN12C renal): 241 nM
TGI (SN12C renal): 598 nM
GI50 (OVCAR-8 ovarian): 329 nM
TGI (OVCAR-8 ovarian): 1760 nM
GI50 (UACC-257 melanoma): 553 nM
TGI (UACC-257 melanoma): 1770 nM
GI50 (SK-MEL-5 melanoma): 182 nM
TGI (SK-MEL-5 melanoma): 331 nM
GI50 (SR leukemia): 125 nM
TGI (SR leukemia): 253 nM
GI50 (MDA-MB-435 melanoma): 320 nM
TGI (MDA-MB-435 melanoma): 903 nM
GI50 (SF-268 CNS): 274 nM
TGI (SF-268 CNS): 724 nM
